Experiments:
D(3) dopamine receptor = D(3) dopamine receptor (Homo sapiens, UniProt P35462); experiment: DRUGMATRIX: Dopamine D3 radioligand binding (ligand: [3H] Spiperone); format: cell membranes, CHO, Membrane; conditions: cho
[1] = DRUGMATRIX: GABAA, Muscimol, Central radioligand binding (ligand: [3H] Muscimol); format: cell membranes, Rattus norvegicus, Wistar, Brain, Membrane; conditions: Not Active = under 50% inhibition at 10 µM
Acetylcholinesterase = Acetylcholinesterase (Homo sapiens, UniProt P22303); experiment: DRUGMATRIX: Acetylcholinesterase enzyme inhibition (substrate: acetylthiocholine); format: cell-based, HEK293; conditions: hek293; Not Active = under 50% inhibition at 10 µM
Chain of Acetylcholinesterase (P22303 whole entry): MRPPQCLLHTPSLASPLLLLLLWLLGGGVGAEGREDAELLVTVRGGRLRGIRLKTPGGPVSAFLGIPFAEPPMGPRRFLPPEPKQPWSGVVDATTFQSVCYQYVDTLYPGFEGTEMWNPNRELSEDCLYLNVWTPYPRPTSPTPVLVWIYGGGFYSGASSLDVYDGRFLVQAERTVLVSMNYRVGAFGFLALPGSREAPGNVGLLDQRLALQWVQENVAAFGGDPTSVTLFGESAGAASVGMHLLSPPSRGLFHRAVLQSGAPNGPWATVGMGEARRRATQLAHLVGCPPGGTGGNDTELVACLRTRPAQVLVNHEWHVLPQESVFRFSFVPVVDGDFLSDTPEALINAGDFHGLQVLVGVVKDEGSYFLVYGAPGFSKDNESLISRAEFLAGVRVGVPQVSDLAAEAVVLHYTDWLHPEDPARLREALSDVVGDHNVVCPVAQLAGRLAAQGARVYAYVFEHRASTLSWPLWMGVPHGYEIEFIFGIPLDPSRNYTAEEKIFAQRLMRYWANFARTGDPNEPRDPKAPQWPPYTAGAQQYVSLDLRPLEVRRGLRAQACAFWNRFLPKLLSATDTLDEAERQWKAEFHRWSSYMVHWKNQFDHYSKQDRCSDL

[2] = target: C-C chemokine receptor type 2 (Homo sapiens, UniProt P41597); format: cell membranes, CHO-K1, Membrane; conditions: cho-k1; also: in other assays of this panel Not Active means under 50% inhibition at 10 µM
Chain of C-C chemokine receptor type 2 (P41597 whole entry): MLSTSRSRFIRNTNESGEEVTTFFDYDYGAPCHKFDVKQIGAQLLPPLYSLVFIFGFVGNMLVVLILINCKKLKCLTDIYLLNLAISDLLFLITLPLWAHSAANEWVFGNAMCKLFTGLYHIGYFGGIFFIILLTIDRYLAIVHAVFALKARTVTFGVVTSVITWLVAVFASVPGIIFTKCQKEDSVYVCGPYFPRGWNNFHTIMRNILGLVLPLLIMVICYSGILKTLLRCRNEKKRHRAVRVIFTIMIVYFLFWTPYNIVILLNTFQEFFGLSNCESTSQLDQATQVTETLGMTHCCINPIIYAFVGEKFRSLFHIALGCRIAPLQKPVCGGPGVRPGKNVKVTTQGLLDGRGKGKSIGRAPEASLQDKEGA

[3] = target: T1, Receptor-type tyrosine-protein phosphatase C (Homo sapiens, UniProt P08575); parameters: species or system Escherichia coli;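 also: inhibition of CD45 enzyme activity measured using DiFMUP as substrate; in other assays of this panel Not Active means under 50% inhibition at 10 µM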
T1 sequence (P08575 whole entry): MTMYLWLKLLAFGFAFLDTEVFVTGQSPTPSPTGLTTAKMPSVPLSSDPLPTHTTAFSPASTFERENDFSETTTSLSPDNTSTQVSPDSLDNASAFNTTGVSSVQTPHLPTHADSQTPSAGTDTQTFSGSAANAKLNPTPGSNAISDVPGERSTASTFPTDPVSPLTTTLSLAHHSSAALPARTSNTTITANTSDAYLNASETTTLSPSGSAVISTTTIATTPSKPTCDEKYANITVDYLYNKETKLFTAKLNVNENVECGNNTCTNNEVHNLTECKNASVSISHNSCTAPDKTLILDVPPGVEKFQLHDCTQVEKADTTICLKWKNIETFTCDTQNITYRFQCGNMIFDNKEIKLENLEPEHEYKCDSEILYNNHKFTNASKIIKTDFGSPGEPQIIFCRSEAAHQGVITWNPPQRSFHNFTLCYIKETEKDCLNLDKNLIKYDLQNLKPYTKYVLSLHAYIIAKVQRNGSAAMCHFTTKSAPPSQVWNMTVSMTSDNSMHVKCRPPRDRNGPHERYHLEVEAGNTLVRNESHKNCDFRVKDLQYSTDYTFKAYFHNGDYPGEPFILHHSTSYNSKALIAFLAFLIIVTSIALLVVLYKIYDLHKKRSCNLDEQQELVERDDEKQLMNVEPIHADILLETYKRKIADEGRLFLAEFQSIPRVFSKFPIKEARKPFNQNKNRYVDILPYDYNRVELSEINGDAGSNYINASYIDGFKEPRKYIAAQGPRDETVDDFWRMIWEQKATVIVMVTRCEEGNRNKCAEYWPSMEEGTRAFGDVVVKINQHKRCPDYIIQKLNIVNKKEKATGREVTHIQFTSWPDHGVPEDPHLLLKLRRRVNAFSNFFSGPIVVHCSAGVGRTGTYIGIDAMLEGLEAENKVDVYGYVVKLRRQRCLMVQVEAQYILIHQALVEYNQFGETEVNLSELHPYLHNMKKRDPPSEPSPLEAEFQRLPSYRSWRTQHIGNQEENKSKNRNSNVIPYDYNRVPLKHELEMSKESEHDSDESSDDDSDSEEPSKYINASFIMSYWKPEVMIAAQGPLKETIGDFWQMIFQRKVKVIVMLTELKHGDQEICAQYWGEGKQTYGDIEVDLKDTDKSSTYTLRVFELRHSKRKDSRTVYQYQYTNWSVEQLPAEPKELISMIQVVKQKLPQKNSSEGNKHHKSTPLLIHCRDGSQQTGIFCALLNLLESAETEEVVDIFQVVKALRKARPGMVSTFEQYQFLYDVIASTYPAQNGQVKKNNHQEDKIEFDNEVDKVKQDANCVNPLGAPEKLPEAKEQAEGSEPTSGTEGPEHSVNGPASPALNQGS

Caspase-1 = target: T2, Caspase-1 (Homo sapiens, UniProt P29466); parameters: species or system Escherichia coli;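 also: Caspase-1 enzyme inhibition assay with a peptide substrate; in other assays of this panel Not Active means under 50% inhibition at 10 µM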
T2 sequence (P29466 whole entry): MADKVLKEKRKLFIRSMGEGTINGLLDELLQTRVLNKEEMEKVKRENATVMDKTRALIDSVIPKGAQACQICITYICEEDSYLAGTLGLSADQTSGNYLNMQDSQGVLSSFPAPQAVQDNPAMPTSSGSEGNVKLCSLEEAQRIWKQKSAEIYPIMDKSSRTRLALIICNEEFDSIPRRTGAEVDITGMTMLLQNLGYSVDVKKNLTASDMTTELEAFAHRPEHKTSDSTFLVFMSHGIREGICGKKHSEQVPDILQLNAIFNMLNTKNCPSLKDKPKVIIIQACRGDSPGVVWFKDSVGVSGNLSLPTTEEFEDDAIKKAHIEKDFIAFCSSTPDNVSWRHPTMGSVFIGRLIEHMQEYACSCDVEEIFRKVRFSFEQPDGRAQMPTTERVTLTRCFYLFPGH

[4] = target: Mitogen-activated protein kinase 14 (Homo sapiens, UniProt Q16539); parameters: species or system Escherichia coli;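 also: inhibition of p38alpha enzyme activity in a biochemical kinase assay, with myelin basic protein serving as substrate; in other assays of this panel Not Active means under 50% inhibition at 10 µM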
Chain of Mitogen-activated protein kinase 14 (Q16539 whole entry): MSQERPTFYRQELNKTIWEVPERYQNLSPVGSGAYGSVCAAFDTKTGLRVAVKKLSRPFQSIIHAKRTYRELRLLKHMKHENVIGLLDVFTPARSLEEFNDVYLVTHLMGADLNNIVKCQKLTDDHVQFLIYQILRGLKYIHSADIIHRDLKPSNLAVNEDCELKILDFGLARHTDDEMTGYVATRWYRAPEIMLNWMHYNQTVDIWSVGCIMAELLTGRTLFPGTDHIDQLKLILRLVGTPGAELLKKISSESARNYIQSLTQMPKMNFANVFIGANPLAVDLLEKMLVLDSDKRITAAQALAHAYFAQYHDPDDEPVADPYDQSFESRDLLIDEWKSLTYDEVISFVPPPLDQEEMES

Cathepsin G = target: T3, Cathepsin G (Homo sapiens, UniProt P08311); format: tissue-based; conditions: neutrophil
T3 sequence (P08311 whole entry): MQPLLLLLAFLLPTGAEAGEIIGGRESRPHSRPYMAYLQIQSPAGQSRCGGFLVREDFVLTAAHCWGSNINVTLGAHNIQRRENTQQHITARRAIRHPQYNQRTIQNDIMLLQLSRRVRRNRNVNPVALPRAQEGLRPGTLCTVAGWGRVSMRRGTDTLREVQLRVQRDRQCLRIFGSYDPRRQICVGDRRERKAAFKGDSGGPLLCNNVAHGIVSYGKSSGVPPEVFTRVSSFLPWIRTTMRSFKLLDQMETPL

D(4) dopamine receptor = target: T4, D(4) dopamine receptor (Homo sapiens, UniProt P21917); experiment: DRUGMATRIX: Dopamine D4.2 radioligand binding (ligand: [3H] Spiperone); format: cell membranes, CHO-K1, Membrane; conditions: cho-k1; Not Active = under 50% inhibition at 10 µM
T4 sequence (P21917 whole entry): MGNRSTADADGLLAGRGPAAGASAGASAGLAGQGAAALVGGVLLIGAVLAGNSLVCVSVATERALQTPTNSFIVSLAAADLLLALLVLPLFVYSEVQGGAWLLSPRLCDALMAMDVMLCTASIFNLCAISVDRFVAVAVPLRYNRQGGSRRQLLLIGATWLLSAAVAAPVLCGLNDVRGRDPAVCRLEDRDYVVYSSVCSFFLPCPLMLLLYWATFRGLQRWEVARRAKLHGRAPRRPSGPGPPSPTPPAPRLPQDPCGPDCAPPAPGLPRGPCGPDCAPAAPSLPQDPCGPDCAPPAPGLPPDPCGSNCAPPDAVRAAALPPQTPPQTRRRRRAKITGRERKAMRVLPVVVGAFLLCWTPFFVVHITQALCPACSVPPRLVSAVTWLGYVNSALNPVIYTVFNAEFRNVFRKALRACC

Chain of D(3) dopamine receptor (P35462 whole entry): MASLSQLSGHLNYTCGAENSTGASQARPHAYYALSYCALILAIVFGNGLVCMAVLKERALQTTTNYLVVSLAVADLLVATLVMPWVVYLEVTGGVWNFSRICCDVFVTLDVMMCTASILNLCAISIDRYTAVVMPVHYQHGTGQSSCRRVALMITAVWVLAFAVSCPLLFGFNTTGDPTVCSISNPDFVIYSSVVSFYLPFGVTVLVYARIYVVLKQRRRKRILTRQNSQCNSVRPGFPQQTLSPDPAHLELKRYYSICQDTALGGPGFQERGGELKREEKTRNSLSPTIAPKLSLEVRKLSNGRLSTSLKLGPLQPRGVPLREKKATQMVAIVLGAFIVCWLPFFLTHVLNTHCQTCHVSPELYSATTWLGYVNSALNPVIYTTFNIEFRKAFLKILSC

CC(C)(S)[C@@H](N)C(=O)O [PENICILLAMINE]
Not Active: IC50 (D(3) dopamine receptor) | IC50 [1] | Ki [1] | IC50 (Acetylcholinesterase) | IC50 [2] | IC50 [3] | IC50 (Caspase-1) | IC50 [4] | IC50 (Cathepsin G) | IC50 (D(4) dopamine receptor)

CC1COc2c(N3CCN(C)CC3)c(F)cc3c(=O)c(C(=O)O)cn1c23 (stereo not drawn) [OFLOXACIN]
Not Active: IC50 (D(3) dopamine receptor) | IC50 [1] | Ki [1] | IC50 (Acetylcholinesterase) | IC50 [2] | IC50 [3] | IC50 (Caspase-1) | IC50 [4] | IC50 (Cathepsin G) | IC50 (D(4) dopamine receptor)

Cc1[nH]cnc1CN1CCc2c(c3ccccc3n2C)C1=O [ALOSETRON]
Not Active: IC50 (D(3) dopamine receptor) | IC50 [1] | Ki [1] | IC50 (Acetylcholinesterase) | IC50 [2] | IC50 [3] | IC50 (Caspase-1) | IC50 [4] | IC50 (Cathepsin G) | IC50 (D(4) dopamine receptor)

COc1ccc(CN(CCN(C)C)c2ccccn2)cc1 [PYRILAMINE]
Not Active: IC50 (D(3) dopamine receptor) | IC50 [1] | Ki [1] | IC50 (Acetylcholinesterase) | IC50 [2] | IC50 [3] | IC50 (Caspase-1) | IC50 [4] | IC50 (Cathepsin G) | IC50 (D(4) dopamine receptor)

NS(=O)(=O)c1cc2c(cc1Cl)NCNS2(=O)=O [HYDROCHLOROTHIAZIDE]
Not Active: IC50 (D(3) dopamine receptor) | IC50 [1] | Ki [1] | IC50 (Acetylcholinesterase) | IC50 [2] | IC50 [3] | IC50 (Caspase-1) | IC50 [4] | IC50 (Cathepsin G) | IC50 (D(4) dopamine receptor)

CCCCCCCCCc1ccc(O)cc1 [4-NONYLPHENOL]
Not Active: IC50 (D(3) dopamine receptor) | IC50 [1] | Ki [1] | IC50 (Acetylcholinesterase) | IC50 [2] | IC50 [3] | IC50 (Caspase-1) | IC50 [4] | IC50 (Cathepsin G) | IC50 (D(4) dopamine receptor)

CN1C(C(=O)Nc2ccccn2)=C(O)c2ccccc2S1(=O)=O [PIROXICAM]
Not Active: IC50 (D(3) dopamine receptor) | IC50 [1] | Ki [1] | IC50 (Acetylcholinesterase) | IC50 [2] | IC50 [3] | IC50 (Caspase-1) | IC50 [4] | IC50 (Cathepsin G) | IC50 (D(4) dopamine receptor)

N#C[C@H](O[C@@H]1O[C@H](CO[C@@H]2O[C@H](CO)[C@@H](O)[C@H](O)[C@H]2O)[C@@H](O)[C@H](O)[C@H]1O)c1ccccc1 [AMYGDALIN]
Not Active: IC50 (D(3) dopamine receptor) | IC50 [1] | Ki [1] | IC50 (Acetylcholinesterase) | IC50 [2] | IC50 [3] | IC50 (Caspase-1) | IC50 [4] | IC50 (Cathepsin G) | IC50 (D(4) dopamine receptor)

CCOC(=O)OC(C)OC1=C(C(=O)Nc2ccccn2)N(C)S(=O)(=O)c2ccccc21 (stereo not drawn) [AMPIROXICAM]
Not Active: IC50 (D(3) dopamine receptor) | IC50 [1] | Ki [1] | IC50 (Acetylcholinesterase) | IC50 [2] | IC50 [3] | IC50 (Caspase-1) | IC50 [4] | IC50 (Cathepsin G) | IC50 (D(4) dopamine receptor)

GOLD SODIUM THIOMALATE
Not Active: IC50 (D(3) dopamine receptor) | Ki (D(3) dopamine receptor) | IC50 [1] | Ki [1] | IC50 (Acetylcholinesterase) | Ki (Acetylcholinesterase) | IC50 [2] | Ki [2] | IC50 [3] | Ki [3] | IC50 (Caspase-1) | Ki (Caspase-1) | IC50 [4] | Ki [4] | IC50 (Cathepsin G) | Ki (Cathepsin G) | IC50 (D(4) dopamine receptor) | Ki (D(4) dopamine receptor)

C[C@]12CCC(=O)C=C1CC[C@@H]1[C@@H]2C(=O)C[C@@]2(C)[C@H]1CC[C@]2(O)C(=O)CO [CORTISONE]
Not Active: IC50 (D(3) dopamine receptor) | IC50 [1] | Ki [1] | IC50 (Acetylcholinesterase) | IC50 [2] | IC50 [3] | IC50 (Caspase-1) | IC50 [4] | IC50 (Cathepsin G) | IC50 (D(4) dopamine receptor)

CCCC[C@@H](CC)COC(=O)c1ccccc1C(=O)OC[C@@H](CC)CCCC [BIS(2-ETHYLHEXYL)PHTHALATE]
Not Active: IC50 (D(3) dopamine receptor) | IC50 [1] | Ki [1] | IC50 (Acetylcholinesterase) | IC50 [2] | IC50 [3] | IC50 (Caspase-1) | IC50 [4] | IC50 (Cathepsin G) | IC50 (D(4) dopamine receptor)

CCc1ccc(C(=O)C(C)CN2CCCCC2)cc1 (stereo not drawn) [EPERISONE]
Not Active: IC50 (D(3) dopamine receptor) | IC50 [1] | Ki [1] | IC50 (Acetylcholinesterase) | IC50 [2] | IC50 [3] | IC50 (Caspase-1) | IC50 [4] | IC50 (Cathepsin G) | IC50 (D(4) dopamine receptor)

— ChEMBL document CHEMBL1909046, “DrugMatrix in vitro pharmacology data”
